The IC50 is the concentration that inhibits the measured activity by half.

The target in this assay is Protein Tat (Human immunodeficiency virus type 1 group M subtype B (isolate HXB2)) (UniProt P04608). The assay can be described thus: HIV-1 Tat–TAR interaction blockers – biochemical, fluorescence polarization, FAM-labeled TAR RNA, counter-screen for Vif-APOBEC3G degradation inhibitor project, dose response (AID 1117361). The following applies: Tat-TAR RNA binding. In general terms: In fluorescence polarisation assays a small probe gives low polarisation when free and higher when bound to something large.
Chain of Protein Tat (Human immunodeficiency virus type 1 group M subtype B (isolate HXB2)) (P04608 whole entry, looked up): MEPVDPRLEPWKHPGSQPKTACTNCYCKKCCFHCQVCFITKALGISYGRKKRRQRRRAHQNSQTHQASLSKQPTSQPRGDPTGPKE
In the case of `N#Cc1c(-c2ccco2)c2c([nH]c1=S)CCCC2`, the IC50 is 8.34 µM. Take `COc1cccc(CNC(=O)CCNS(=O)(=O)c2cccs2)c1`: the half-maximal inhibitory concentration (IC50) was 9.05 µM. Take `COc1cc(C(=O)NCc2nnc(SCC(=O)Nc3nc4ccc(C)cc4s3)o2)cc(OC)c1OC`: the IC50 was 35.9 µM. Turning to `CC(=C/C(=O)O)/C=C/c1ccc(Cl)o1`, the IC50 was 92 µM.

In the case of `CCC(=Nc1ccc(N)cc1)C1=C(O)C(C(=O)OC)C(C)(C)CC1=O` (stereo unspecified), the IC50 is 5.48 µM. Take `CCn1cc(Br)c(C(=O)Nc2cccc(SC)c2)n1`: the IC50 was 1.44 µM.

Turning to `CCCCNC(=O)c1ccc2nc(-c3ccco3)c(-c3ccco3)nc2c1`, the IC50 is 6.84 µM. `CCOC(=O)c1c(C)oc2c1c(C=NCc1ccccn1)c(O)c1ccccc12`: the IC50 is 4.15 µM. Regarding `CC1=CC(=Nc2c(C)n(C)n(-c3ccccc3)c2=O)C=CC1=O`, the IC50 was 14.5 µM. In the case of `NC(=O)/C(=C/c1ccco1)C(N)=S`, the IC50 is 12 µM. Take `CC(=O)Nc1ccc(C=C(C#N)c2ccc(C)cc2)cc1`: the IC50 was 24.7 µM. As to `NCCc1c[nH]c2ccccc12`, the IC50 is 11.8 µM.

On to `COc1cc(C(=O)NCC(c2ccco2)N2CCCC2)ccc1OCc1c(C)noc1C` (stereo unspecified), for which the IC50 is 93.5 µM. Turning to `CCOc1cccc(=O)c2c(C)n(C)c(C)c12`, the IC50 was 55.2 µM. For `Cc1noc(/C=C/c2ccco2)c1S(=O)(=O)N1CCC(C(=O)NCc2ccco2)CC1`, the IC50 is 6.93 µM. Turning to `O=C1NC(c2cccc(Br)c2)=N/C1=C\c1ccco1`, the IC50 was 9.2 µM. Regarding `Cc1ccn2cc(-c3nonc3C)cc2c1`, the IC50 is 21.4 µM.

In the case of `O=C(C1CCCO1)N1CCC2(CC1)OCCO2` (stereo unspecified), the IC50 was 5.55 µM. For the compound `COCc1cc(C)nc(NCCO)c1C#N`, the half-inhibitory concentration (IC50) is 1.44 µM. Take `O=C1CC(c2ccco2)CC(O)=C1C=Nc1cc(Cl)ccc1Cl` (stereo unspecified): the IC50 was 7.33 µM.

`CN1c2ccsc2C(O)=C(C(=S)Nc2ccc(F)c(Cl)c2)S1(=O)=O`: the IC50 was 5.38 µM. `Cc1ccc(S(=O)(=O)OCC(=O)Nc2ccc(C(=O)O)c(O)c2)cc1`: the IC50 was 75.3 µM. In the case of `CCCCC1=CC2=CC(=O)C(C)(OC(=O)C3CCCC3)C(=O)C2=CO1` (stereo unspecified), the IC50 is 53.6 µM. On to `O=C(C1CCCN1S(=O)(=O)c1cccc2cccnc12)N1CCN(c2ccccc2)CC1` (stereo unspecified), for which the IC50 is 46.8 µM. Consider `O=C(O)C1OC(Oc2c(-c3ccc(O)c(O)c3)oc3cc(O)cc(O)c3c2=O)C(O)C(O)C1O` (stereo unspecified), for which the half-maximal inhibitory concentration (IC50) is 2.12 µM. For the compound `O=C(Nc1ccccc1F)c1coc(=O)c(Br)c1`, the IC50 is 15 µM. Under `Cc1c(N=C2C=C(Br)C(=O)C(Br)=C2)c(=O)n(-c2ccccc2)n1C` stands 11 µM; under `Cc1nn(-c2ccccc2)c2sc(C(=O)N3CCc4ccccc4C3)cc12`, 40.1 µM.

On to `C=CCn1c(SCC(=O)NCCCC)nc2scc(-c3ccco3)c2c1=O`, for which the IC50 is 17.8 µM. On to `CN(CC(=O)Nc1cccc(F)c1)C(=O)c1cccc(-n2cccc2)c1`, for which the IC50 was 40.9 µM. Under `C=CCN1C(=O)/C(=C\c2ccco2)C(C(=O)OC)=C1C` stands 45.9 µM; under `CCC(=O)N1N=C(c2ccc(NS(C)(=O)=O)cc2)CC1c1ccc(C)cc1` (stereo unspecified), 88.8 µM.

As to `Cc1ccc(-c2c3c([nH]c(=S)c2C#N)CCCC3)o1`, the IC50 is 21.2 µM. Under `COc1ccc(OC)c(N2C(=O)[C@@H]3C(c4ccccc4Cl)=NO[C@@H]3C2=O)c1` stands 82.1 µM. `CCN1C(=O)/C(=C\c2ccc([N+](=O)[O-])s2)C(=O)NC1=S`: the IC50 was 4.07 µM. Take `O=C(/C=C/c1ccco1)NC(=S)Nc1ccccc1N1CCOCC1`: the IC50 was 25.8 µM.

As for `COc1ccc(Nc2ccc(OC)cc2)cc1`, the IC50 was 23.2 µM. For `O=C(CN1C(=O)NC2(CCCCCCC2)C1=O)NCc1cccs1`, the IC50 is 36.5 µM.

With `Cc1oc(-c2ccc(Cl)cc2)cc1-c1nn2c(-c3ccoc3C)nnc2s1`, the IC50 is 2.87 µM.

`C=C(C)C(=O)Nc1cccc(C2=NOC3(C2)C[C@H](C(N)=O)N(C(=O)C(c2ccccc2)c2ccccc2)C3)c1` (stereo partly specified): the IC50 was 31.7 µM.

As to `O=C(O)C[C@@H]1C(=O)O[C@@H]2C(COC(=O)c3cc(O)c(O)c(O)c3)O[C@@H](OC(=O)c3cc(O)c(O)c(O)c3)[C@@H](OC(=O)c3cc(O)c(O)c4c3[C@H]1[C@H](O)C(=O)O4)[C@H]2OC(=O)c1cc(O)c(O)c(O)c1` (stereo partly specified), the 50% inhibitory concentration (IC50) is 0.556 µM. With `CSc1nnc(-c2ccco2)c(-c2ccco2)n1`, the IC50 was 6.07 µM. With `CCOC(=O)C(=O)NCc1ccc(/C=C2/N=C(C)C(C(=O)OCC)=C2O)o1`, the IC50 was 4.71 µM. For `COC/C=C/C1=CC2=CC(=O)C(C)(OC(=O)c3cnc4ccccc4n3)C(=O)C2=CN1c1ccccc1` (stereo unspecified), the IC50 is 22.3 µM.

Take `CCCCn1c(=NC(=O)c2cccnc2)c(C#N)cc2c(=O)n3cccc(C)c3nc21`: the IC50 is 4.74 µM. In the case of `O=C(COC(=O)c1ccc(NS(=O)(=O)c2cccs2)cc1)NCc1ccco1`, the IC50 is 16.4 µM.

On to `Cn1cnnc1SC/C(O)=C(\C#N)c1nc2ccccc2[nH]1`, for which the half-maximal inhibitory concentration (IC50) was 37.4 µM. Under `Cn1c(N)c(C(=O)COC(=O)C2CCCCC2)c(=O)n(C)c1=O` stands 76.2 µM. `O=C(O)Cc1ccc(N=Nc2c(O)c(C(=O)O)cc3ccccc23)cc1`: the concentration for half-maximal inhibition (IC50) is 27.5 µM.

In the case of `O=C(O)CC(C(=O)O)N1C(=O)/C(=C/C=C/c2ccco2)SC1=S` (stereo unspecified), the IC50 is 1.33 µM. Under `Cc1ccc(C)n1-c1ccc(C(=O)O)cc1` stands 9.09 µM; under `CC1=CC(C)(C)Nc2ccc(OC(=O)CN3C(=O)c4cccc5cccc(c45)C3=O)cc21`, 15.3 µM; under `CC(=O)c1sc(C(=O)O)c(-c2ccco2)c1-c1ccco1`, 4.86 µM. The figure for `Cc1ccc(C(CC(=O)NCc2ccco2)c2ccccc2)c(O)c1` (stereo unspecified) is 30 µM; for `O=C(CSc1nc(-c2ccco2)cc(C(F)(F)F)n1)N1CCc2ccccc2C1` it is 35.2 µM; for `COc1ccc2c(c1OC)C(=O)OC2CC(=O)c1ccc(O)c(O)c1` (stereo unspecified) it is 80.5 µM. Regarding `COCCn1nnnc1C(c1cc2cc(OC)c(OC)cc2[nH]c1=O)N1CCN(c2ccc(O)cc2)CC1` (stereo unspecified), the IC50 is 94.3 µM. Consider `O=C(O)c1cccc2c1NC(C(=O)O)C1CC(Sc3ccccc3[N+](=O)[O-])C(Cl)C21` (stereo unspecified), for which the IC50 was 1.91 µM.

Turning to `CCCN1C(=O)S/C(=C\c2ccc(N3CCOCC3)cc2C)C1=O`, the IC50 was 1.92 µM.

Take `CNc1ccccc(-c2ccc3cc4c(cc3n2)OCO4)c1=O`: the IC50 is 2.22 µM. For the compound `Cc1ccc2c(c1C)NC(C(=O)O)C1CC=CC21` (stereo unspecified), the IC50 is 34.7 µM. Turning to `CCc1cc(=O)oc2cc(C)c(CN3CCCC3)c(O)c12`, the IC50 was 5.84 µM. `O=S(=O)(c1ccc(OCC(O)CN2CCC(Cc3ccccc3)CC2)cc1)N1CCOCC1` (stereo unspecified): the IC50 is 10.3 µM. On to `COc1cc(NC(=O)CS(=O)(=O)c2ccc(C)cc2)cc(OC)c1OC`, for which the IC50 was 1.42 µM. The figure for `O=C1C=CC(=O)c2c(O)c(CO)c(CO)c(O)c21` is 3.48 µM. `Cc1cc([N+](=O)[O-])cc2c1NC(c1ccccn1)C1CC=CC21` (stereo unspecified): the IC50 was 49.1 µM. As to `COc1cccc2c1NC(C(=O)O)C1CC=CC21` (stereo unspecified), the IC50 is 1.87 µM.

Regarding `CNc1ccc(Br)cc(C(=O)/C=C/c2ccc(Cl)cc2Cl)c1=O`, the IC50 is 9.56 µM. For `O=C(O)CSc1c2c(nc3cc(C(=O)Nc4cccc(C(F)(F)F)c4)ccc13)CCC2`, the IC50 is 56.2 µM.

In the case of `COc1ccc(C2=NCC(=O)N(CC(=O)NCc3ccco3)c3sc4c(c32)CCCC4)cc1OC`, the IC50 is 82.3 µM. In the case of `CCOc1ccc(N(CC(=O)NC(C)(C)C)S(=O)(=O)c2c(C)noc2C)cc1`, the IC50 is 5.37 µM. As to `O=C(O)c1ccc(-n2cccc2/C=C2/NC(=O)N(c3cccc(Cl)c3)C2=O)cc1`, the IC50 was 7.85 µM. On to `CC1C/C(=C/c2ccco2)C(=O)/C(=C/c2ccco2)C1` (stereo unspecified), for which the IC50 is 3.92 µM. With `O=C1CC(Nc2ccc(N3CCOCC3)cc2)C(=O)N1C1CCCCC1` (stereo unspecified), the IC50 was 11.6 µM.

Regarding `Cc1ncc(CO)c(/C=N/NC(=O)c2cc(O)c(O)c(O)c2)c1O`, the half-inhibitory concentration (IC50) was 32.1 µM. Regarding `CN(Cc1cnc2nc(N)nc(N)c2n1)c1ccc(C(=O)NC(CCC(=O)O)C(=O)O)cc1` (stereo unspecified), the half-maximal inhibitory concentration (IC50) is 40.1 µM. For the compound `CC(=C\c1ccco1)/C=C1/SC(=S)N(CC(=O)O)C1=O`, the half-maximal inhibitory concentration (IC50) is 8.8 µM. Regarding `O=C(CN1CCN(S(=O)(=O)c2ccc(Cl)cc2)CC1)Nc1ccc2c(c1)OCCO2`, the IC50 is 1.31 µM. Turning to `O=[N+]([O-])c1c(NCCCO)cc(SCc2ccco2)c2nonc12`, the IC50 was 16.5 µM. Regarding `CNC(=O)c1ccccc1NC(=O)c1ccc(C)c(S(=O)(=O)N2CCCCC2)c1`, the IC50 was 0.969 µM. Regarding `O=C(OCC1O[C@@H](OC(=O)c2cc(O)c(O)c(O)c2)[C@@H](OC(=O)c2cc(O)c(O)c(O)c2)[C@@H](OC(=O)c2cc(O)c(O)c(O)c2)[C@@H]1OC(=O)c1cc(O)c(O)c(O)c1)c1cc(O)c(O)c(O)c1` (stereo partly specified), the IC50 was 25.4 µM. As to `COc1ccc(O)c(C(=O)C2c3ccccc3C(=O)N2c2ccc(C)cc2)c1` (stereo unspecified), the half-maximal inhibitory concentration (IC50) is 0.303 µM. As to `O=C1NC(=Nc2ccc(O)cc2)S/C1=C\C=C\c1ccco1`, the IC50 is 18.3 µM. On to `COC(=O)c1ccc(COc2ccc(/C=N/Nc3cccc(C(=O)O)c3)cc2)cc1`, for which the IC50 is 62.4 µM. Under `Cc1cc(O)c(-c2cc(O)c(C)cc2O)cc1O` stands 89.7 µM; under `COC/C=C/C1=CC2=CC(=O)C(C)(OC(=O)CCC(=O)OC)C(=O)C2=CO1` (stereo unspecified), 8.1 µM. With `Cc1ccccc1NC(=O)CSc1nnc(-c2ccco2)c(-c2ccco2)n1`, the IC50 was 2.73 µM. As to `CC1=C(C(=O)Nc2ccccc2)C(c2ccc(C)o2)n2c(s/c(=C\c3ccco3)c2=O)=N1` (stereo unspecified), the concentration for half-maximal inhibition (IC50) is 5.9 µM.

Regarding `COc1cc(CNCCc2ccc(F)cc2)ccc1OCc1ccc(Cl)nc1`, the IC50 is 9.8 µM. As to `Cc1cc(C)cc(Nc2ccc(C(=O)O)cc2N)c1`, the IC50 was 47.1 µM. As to `Cc1cc(NC(=O)CCNS(=O)(=O)c2cc(Br)cnc2N)ccc1Br`, the IC50 was 93.7 µM. Turning to `COc1cccc(N2C(=O)NC(=O)/C(=C/c3ccc([N+](=O)[O-])s3)C2=O)c1`, the IC50 was 34.3 µM.

Regarding `COCCCNC(=O)/C(C#N)=C/c1ccc(OCC(=O)O)c(OC)c1`, the IC50 was 34.4 µM. As to `O=C1c2ccccc2C(=O)N1/N=C/c1ccc(O)c(O)c1O`, the IC50 was 14.7 µM.

As to `CCOC(=O)CNc1ccc2c(c1)OCO2`, the IC50 is 1.47 µM. For the compound `COc1ccc2c3c(cccc13)N(C)N=C2C`, the half-maximal inhibitory concentration (IC50) is 11.1 µM.

The values above are taken from PubChem BioAssay AID1117361 (Southern Research Institute, 2015).
